Like-named read-outs stand apart in the source and are kept apart here. Marks after values point to notes of the source that are not given here.
What was measured:
WT hDAT [1] = target: T1, WT hDAT (Homo sapiens, UniProt Q01959); test: inhibition of [3H]DA uptake in intact HEK-hDAT cells; format: cell-based; conditions: for Uptake Kapp, WT: inhibition of [3H]DA uptake, intact HEK-hDAT cells, 5 min; for Kapp / Ki ratio: uptake Kapp over binding Ki at WT hDAT
wild-type hDAT = wild-type hDAT (Homo sapiens, UniProt Q01959); test: displacement of intact-cell [3H]CFT binding, wild-type hDAT; conditions: for Ki: inhibition of [3H]CFT binding, intact HEK-hDAT cells, 21°C, 15 min; for fold increase in binding affinity over monovalent DA: relative to dopamine
hDAT D313N mutant = hDAT D313N mutant (Homo sapiens, UniProt Q01959, D313N); test: displacement of intact-cell [3H]CFT binding, D313N mutant hDAT
hDAT W84L mutant = target: T2, hDAT W84L mutant (Homo sapiens, UniProt Q01959, W84L); test: displacement of intact-cell [3H]CFT binding, W84L mutant hDAT
T2 sequence (Q01959 1-620 W84L): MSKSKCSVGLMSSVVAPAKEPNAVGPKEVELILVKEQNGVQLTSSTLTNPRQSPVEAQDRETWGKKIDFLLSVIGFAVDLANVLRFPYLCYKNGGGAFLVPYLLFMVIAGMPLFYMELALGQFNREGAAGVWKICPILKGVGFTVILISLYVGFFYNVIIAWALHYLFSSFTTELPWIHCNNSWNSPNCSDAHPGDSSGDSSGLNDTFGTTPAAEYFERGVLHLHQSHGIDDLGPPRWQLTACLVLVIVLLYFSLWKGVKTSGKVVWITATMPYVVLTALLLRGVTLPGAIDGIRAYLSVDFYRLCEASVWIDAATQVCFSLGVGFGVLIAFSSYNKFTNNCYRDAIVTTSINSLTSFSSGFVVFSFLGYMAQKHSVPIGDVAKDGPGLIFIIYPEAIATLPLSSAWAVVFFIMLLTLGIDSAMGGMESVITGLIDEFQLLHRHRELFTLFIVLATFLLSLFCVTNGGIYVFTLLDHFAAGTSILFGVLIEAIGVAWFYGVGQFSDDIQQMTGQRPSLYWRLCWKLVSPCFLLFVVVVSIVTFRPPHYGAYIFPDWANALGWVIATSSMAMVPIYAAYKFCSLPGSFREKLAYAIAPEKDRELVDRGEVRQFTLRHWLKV

WT hDAT [2] = target: T1, WT hDAT; conditions: inhibition of [3H]DA uptake; ref Chen et al. (2004); cited from earlier work

T1 sequence (Q01959 whole entry): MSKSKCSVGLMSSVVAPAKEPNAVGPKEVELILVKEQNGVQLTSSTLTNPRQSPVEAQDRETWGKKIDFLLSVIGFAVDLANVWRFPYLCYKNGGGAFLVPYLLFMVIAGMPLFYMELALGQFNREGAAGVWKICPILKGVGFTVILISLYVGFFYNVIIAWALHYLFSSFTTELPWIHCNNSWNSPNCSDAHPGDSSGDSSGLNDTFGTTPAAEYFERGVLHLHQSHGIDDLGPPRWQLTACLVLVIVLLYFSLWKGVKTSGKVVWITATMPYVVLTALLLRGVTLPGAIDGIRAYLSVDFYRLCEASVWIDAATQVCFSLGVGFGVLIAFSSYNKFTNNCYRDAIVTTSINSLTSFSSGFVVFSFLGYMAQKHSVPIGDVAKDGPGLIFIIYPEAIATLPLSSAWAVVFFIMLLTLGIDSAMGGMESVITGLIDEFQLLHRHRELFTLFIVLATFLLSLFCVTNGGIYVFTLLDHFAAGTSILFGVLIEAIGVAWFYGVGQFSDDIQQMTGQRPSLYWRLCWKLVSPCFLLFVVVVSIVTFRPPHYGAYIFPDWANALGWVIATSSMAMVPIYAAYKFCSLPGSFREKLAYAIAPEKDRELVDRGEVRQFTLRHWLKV
wild-type hDAT, sequence (Q01959 whole entry): as above
hDAT D313N mutant, sequence (Q01959 whole entry D313N): as the sequence (Q01959 whole entry) above, with D313N counted along it

Compound | Uptake Kapp, WT (WT hDAT [1]) | Ki (wild-type hDAT; read-out: hDAT Binding Ki, WT) | fold increase in binding affinity over monovalent DA (wild-type hDAT; [3H]CFT binding, WT hDAT) | also measured
C[C@H](N)Cc1ccccc1 [(d)-amphetamine, reference compound] | 163.5 ± 4.57 nM | – | – | –
CN[C@@H](C)Cc1ccccc1 [(d)-methamphetamine, reference compound] | 141.7 ± 18.8 nM | 341 ± 42.7 nM | – | –
CC(CCc1ccc(O)cc1)NCCc1ccc(O)c(O)c1 (stereo not drawn) [(dl)-dobutamine, dobutamine, reference compound] | 329.4 ± 16.5 nM | – | 21 fold | Ki (hDAT D313N mutant): 257 ± 26.5 nM; Ki (hDAT W84L mutant): 237 ± 23.9 nM; Ki (wild-type hDAT; hDAT Binding Ki, WT): 196 ± 14.3 nM
CCCNC(C)Cc1ccccc1 (stereo not drawn) [(dl)-propylamphetamine, N-propylamphetamine, reference compound] | 2497 ± 138 nM | 988 ± 67.6 nM | – | Kapp / Ki ratio (WT hDAT [1]): 1.8–2.5
CC(CCc1ccc(O)c(O)c1)NCCc1ccc(O)c(O)c1 [Compound D-278, hydroxydobutamine] | 187.5 ± 30.2 nM | 58 ± 2.9 nM | 74 fold | fold increase in affinity compared to dobutamine (wild-type hDAT; [3H]CFT binding, WT hDAT): 4 fold; Ki (wild-type hDAT; read-out: hDAT Binding Ki, WT, listed as hydroxydobutamine): ~58 nM
CC(Cc1ccccc1)NCCc1ccc(O)c(O)c1 [Compound D-279, dopamphetamine] | 605.3 ± 46.7 nM | 342 ± 5.38 nM | – | fold increase in binding affinity compared to (d)-amphetamine (wild-type hDAT; [3H]CFT binding, WT hDAT): 2 fold
Oc1ccc(CCNCCCNCCc2ccc(O)c(O)c2)cc1O [Compound D-307] | 1691 ± 197 nM | 875 ± 71.4 nM | 5 fold | –
CC(Cc1ccccc1)NCCCNCCc1ccc(O)c(O)c1 [Compound D-309] | 740.8 ± 30.1 nM | 322 ± 15.3 nM | 13 fold | –
Oc1ccc(CCNCCCCCNCCc2ccc(O)c(O)c2)cc1O [Compound D-347] | 171.5 ± 1.60 nM | 83.3 ± 8.74 nM | 51 fold | –
Oc1ccc(CCNCCCCCCNCCc2ccc(O)c(O)c2)cc1O [Compound D-361] | 134.9 ± 17.5 nM | 69.7 ± 9.54 nM | 61 fold | –
Oc1ccc(CCNCCCCCCCCNCCc2ccc(O)c(O)c2)cc1O [Compound D-362] | 105.7 ± 2.98 nM | 51.9 nM | 82 fold | –
CCCCCCNCCc1ccc(O)c(O)c1 [Compound D-363, N-hexyldopamine] | 3075 ± 223 nM | 1740 ± 191 nM | 2.5 fold | fold loss of activity as inhibitor of [3H]DA uptake relative to dopamine (WT hDAT [1]; WT hDAT): > 7 fold; Kapp / Ki ratio (WT hDAT [1]): 1.8–2.5; fold weaker binding than the bivalent D-361 (wild-type hDAT; [3H]CFT binding, WT hDAT): 25 fold
CC(Cc1ccccc1)NCCCCCCNCCc1ccccc1 [Compound D-370] | 204.7 ± 9.75 nM | 97.8 ± 10 nM | – | –
CC(Cc1ccccc1)NCCCCCCNCCc1ccc(O)c(O)c1 [Compound D-371] | 244.5 ± 21.5 nM | 101 ± 13.4 nM | 42 fold | fold increase in binding affinity compared to (d)-amphetamine (wild-type hDAT; [3H]CFT binding, WT hDAT): 6 fold
CN1[C@@H]2CC[C@H]1C[C@@H](OC(c1ccccc1)c1ccccc1)C2 [benztropine, reference compound] | 375.5 ± 6.35 nM | – | – | –
CC(NC(C)(C)C)C(=O)c1cccc(Cl)c1 (stereo not shown) [bupropion, reference compound] | 576.5 ± 29.1 nM | – | – | –
COC(=O)[C@H]1[C@@H](OC(=O)c2ccccc2)C[C@@H]2CC[C@H]1N2C [cocaine] | – | – | – | Uptake Kapp, WT (WT hDAT [2]): 246.0 ± 25.0 ^b nM
Oc1ccc(CCNCCCCCCNCCc2ccccc2)cc1O [dopexamine, reference compound] | 187.5 ± 19.2 nM | – | – | Ki (hDAT D313N mutant): 192 ± 20.6 nM; Ki (hDAT W84L mutant): 147 ± 5.09 nM; Ki (wild-type hDAT; hDAT Binding Ki, WT): 96.9 ± 13.7 nM
COC(=O)[C@H]1[C@@H](c2ccc(F)cc2)C[C@@H]2CC[C@H]1N2C [β-CFT, 2β-carbomethoxy-3β-(4-fluorophenyl)-tropane] | – | – | – | Uptake Kapp, WT (WT hDAT [2]): 30.0 ± 4.0 ^b nM
NCCc1ccccc1 [β-phenethylamine, reference compound] | 1103 ± 206 nM | 3261 ± 21.5 nM | – | –
hydroxydopentamine [Compound D-310] | 155.3 ± 18.6 nM | 91.4 ± 12.5 nM | – | –

From paper PMC2914574 (Journal of neurochemistry, 2010)
